Reference: US7553843B2, “Process for the preparation of purified crystalline CCI-779” (Wyeth, priority 2005, dated 2009)

What was measured:
[1] = Storage stability of purified crystalline CCI-779, HPLC strength; format: physicochemical
Source text: The good crystallinity of the purified CCI-779 contributes to the improved stability of the purified CCI-779 and longer shelf life, and contains less oxidative impurities. In one embodiment, the purified crystalline CCI-779 of the present invention degrades less than about 3%, less than about 2%, or less than about 1% over a period of about 1 month. Desirably, the purified crystalline CCI-779 retains greater than 97% strength over a period of about 3 months, and more desirably about 6 months at about 5° C. as measured by high performance liquid chromatography (HPLC), among other techniques. The strength is similarly maintained at elevated temperatures up to about 70° C., desirably up to about 51° C., more desirably temperatures up to about 25° C. and greater relative humidities up to about 60%, and most desirably temperatures at about 5° C., or combinations thereof. In one embodiment, the purified crystallized CCI-779 prepared according to the present invention maintains its stability at a temperature of about 25° C. and relative humidity of about 60% for up to about 3 months, and more desirably up to about 6 months.
Following nucleation, the batch was aged for 34 minutes as indicated by the FBRM® instrument to obtain stabilization of the chord count. The pentanediol and heptane were added as described in Example 1. The isolated purified crystalline CCI-779 was washed and dried at 40 EC under vacuum for 48 hours. A yield of 176.3 g of purified crystalline CCI-779 was obtained (87.6%). See Table 1 for the HPLC data for the purified CCI-779 obtained immediately after crystallization and samples tested after 2 weeks and 1 month at varying conditions.
This example was performed using the same protocol as described in Example 2. However, filtration of the crude CCI-779 solution in acetone was completed in 30 minutes by using a medium grit fritted funnel. Following distillation of the acetone, the batch was held as an amorphous foam/oil for 2 hours under reduced pressures. Diethyl ether was then added to the foam/oil and the diethyl ether solution was evaluated for acetone content (8.5 vol %). The diethylether (containing acetone) was then removed by distillation to obtain an amorphous foam. This foam was maintained under reduced pressures for 30 minutes and diethyl ether again added. The diethylether was again monitored for acetone contact and determined to be less than 3.6 vol % acetone. The crystallization was the continued as in Example 2. The induction time for nucleation, i.e., the time required to obtain a chord count for particles of about 1 to about 5 μm particles of greater than about 1500 chords/s was 26 minutes. Following the nucleation, the slurry was stirred for additional time to ensure stabilization of the nucleation. Following isolation and drying as outlined above, a final yield of 175.1 g of purified crystalline CCI-779 was obtained (87.3%). See Table 2, for the HPLC data for the purified crystalline CCI-779 obtained immediately after crystallization and samples tested after 2 weeks and 1 month at varying conditions.

[2] = test system: histologically diverse tumor cells; details: in vitro, cited from earlier work
human tumor xenografts = details: nude mice; cited from earlier work
orthotopic glioma model = details: nude mice; cited from earlier work
[3] = test system: human glioblastoma cell line; details: in vitro; cited from earlier work

CO[C@H]1C[C@@H]2CC[C@@H](C)[C@@](O)(O2)C(=O)C(=O)N2CCCC[C@H]2C(=O)O[C@H]([C@H](C)C[C@@H]2CC[C@@H](OC(=O)C(C)(CO)CO)[C@H](OC)C2)CC(=O)[C@H](C)/C=C(\C)[C@@H](O)[C@@H](OC)C(=O)[C@H](C)C[C@H](C)/C=C/C=C/C=C/1C [CCI-779, Rapamycin 42-ester with 3-hydroxy-2-(hydroxymethyl)-2-methylpropionic acid]
HPLC Strength ([1]; Example 2 batch, Initial (immediately after crystallization)): 101.09%
HPLC Strength ([1]; Example 2 batch, storage 5° C., 1 Month): 97.42%
HPLC Strength ([1]; Example 2 batch, storage 5° C., 2 Weeks): 101.09%
HPLC Strength ([1]; Example 2 batch, storage 25° C./60% RH, 1 Month): 97.87%
HPLC Strength ([1]; Example 2 batch, storage 25° C./60% RH, 2 Weeks): 101.07%
HPLC Strength ([1]; Example 3 batch, Initial (immediately after crystallization)): 100.45%
HPLC Strength ([1]; Example 3 batch, storage 5° C., 1 Month): 97.55%
HPLC Strength ([1]; Example 3 batch, storage 5° C., 2 Weeks): 100.45%
HPLC Strength ([1]; Example 3 batch, storage 25° C./60% RH, 1 Month): 97.81%
HPLC Strength ([1]; Example 3 batch, storage 25° C./60% RH, 2 Weeks): 101.30%
growth of tumor cells ([2]; CNS cancer, T-cell leukemia, breast, prostate, melanoma lines most sensitive): inhibit the growth
cell cycle effect [2]: arrested cells in the G1 phase
activity against human tumor xenografts of diverse histological types (human tumor xenografts): has activity
growth of several human pancreatic tumors and one of two breast cancer lines (human tumor xenografts): inhibited
activity in orthotopic glioma model (orthotopic glioma model): active
growth factor (platelet-derived)-induced stimulation of a human glioblastoma cell line [3]: markedly suppressed
